Reference: patent publication US20220151236A1, “NOVEL OXADIAZOLE COMPOUNDS FOR CONTROLLING OR PREVENTING PHYTOPATHOGENIC FUNGI” (PI INDUSTRIES LTD., priority 2019, published 2022)

System: Phakopsora pachyrhizi
Assay: Phakopsora pachyrhizi Test on Soybean (preventive activity, greenhouse)
Type: in vivo
Conditions: preventive spray on young Soybean plants, inoculated one day after treatment, rated 3, 7, 10 and 15 days after application, read-out: Efficacy (% control), disease severity compared to the untreated check
Experimental: Compounds were dissolved in 2% dimethyl sulfoxide/acetone and then mixed with water containing an emulsifier to a calibrated spray volume of 50 mL. This 50 mL spray solution was poured into spray bottles for further applications. To test the preventive activity of compounds, healthy young Soybean plants raised in the greenhouse were sprayed with the active compound preparation at the stated application rates inside the spray cabinets using hollow cone nozzles. One day after treatment, the plants were inoculated with a spore suspension containing 2×10^5 Phakopsora pachyrhizi conidia. The inoculated plants were then kept in a greenhouse chamber at 22-24° C. temperature and 80-90% relative humidity for disease expression. A visual assessment of the compound's performance was carried out by rating the disease severity (0-100% scale) on treated plants 3, 7, 10 and 15 days after application. Efficacy (% control) of the compounds was calculated by comparing the disease rating in the treatment with the one of the untreated control. The sprayed plants were also assessed for plant compatibility by recording symptoms like necrosis, chlorosis and stunting.

Row | SMILES | pest or weed control at 500 ppm
1 | COc1cccc(NC(=O)c2cn3ccc(-c4noc(C(F)(F)F)n4)cc3n2)c1 [Compound 1, N-(3-methoxyphenyl)-7-(5-(trifluoromethyl)-1,2,4-oxadiazol-3-yl)imidazo[1,2-a]pyridine-2-carboxamide] | ≥ 70%
2 | Cc1ccc(NC(=O)c2cn3ccc(-c4noc(C(F)(F)F)n4)cc3n2)cc1 [Compound 3, N-(p-tolyl)-7-(5-(trifluoromethyl)-1,2,4-oxadiazol-3-yl)imidazo[1,2-a]pyridine-2-carboxamide] | ≥ 70%
3 | O=C(Nc1cccc(F)c1)c1cn2ccc(-c3noc(C(F)(F)F)n3)cc2n1 [Compound 4, N-(3-fluorophenyl)-7-(5-(trifluoromethyl)-1,2,4-oxadiazol-3-yl)imidazo[1,2-a]pyridine-2-carboxamide] | ≥ 70%
4 | O=C(Nc1ccc(F)cc1F)c1cn2ccc(-c3noc(C(F)(F)F)n3)cc2n1 [Compound 5, N-(2,4-difluorophenyl)-7-(5-(trifluoromethyl)-1,2,4-oxadiazol-3-yl)imidazo[1,2-a]pyridine-2-carboxamide] | ≥ 70%
5 | O=C(Nc1ccc(Cl)cc1)c1cn2ccc(-c3noc(C(F)(F)F)n3)cc2n1 [Compound 6, N-(4-chlorophenyl)-7-(5-(trifluoromethyl)-1,2,4-oxadiazol-3-yl)imidazo[1,2-a]pyridine-2-carboxamide] | ≥ 70%
6 | O=C(Nc1ccccc1F)c1cn2ccc(-c3noc(C(F)(F)F)n3)cc2n1 [Compound 7, N-(2-fluorophenyl)-7-(5-(trifluoromethyl)-1,2,4-oxadiazol-3-yl)imidazo[1,2-a]pyridine-2-carboxamide] | ≥ 70%
7 | O=C(NCc1ccc(C(F)(F)F)cc1)c1cn2ccc(-c3noc(C(F)(F)F)n3)cc2n1 [Compound 8, 7-(5-(trifluoromethyl)-1,2,4-oxadiazol-3-yl)-N-(4-(trifluoromethyl)benzyl)imidazo[1,2-a]pyridine-2-carboxamide] | ≥ 70%
8 | O=C(Nc1cccnc1)c1cn2ccc(-c3noc(C(F)(F)F)n3)cc2n1 [Compound 9, N-(pyridin-3-yl)-7-(5-(trifluoromethyl)-1,2,4-oxadiazol-3-yl)imidazo[1,2-a]pyridine-2-carboxamide] | ≥ 70%
9 | O=C(NCc1ccccc1)c1cn2ccc(-c3noc(C(F)(F)F)n3)cc2n1 [Compound 10, N-benzyl-7-(5-(trifluoromethyl)-1,2,4-oxadiazol-3-yl)imidazo[1,2-a]pyridine-2-carboxamide] | ≥ 70%
10 | O=C(Nc1ccncc1)c1cn2ccc(-c3noc(C(F)(F)F)n3)cc2n1 [Compound 11, N-(pyridin-4-yl)-7-(5-(trifluoromethyl)-1,2,4-oxadiazol-3-yl)imidazo[1,2-a]pyridine-2-carboxamide] | ≥ 70%
11 | CNC(=O)c1cn2ccc(-c3noc(C(F)(F)F)n3)cc2n1 [Compound 13, N-methyl-7-(5-(trifluoromethyl)-1,2,4-oxadiazol-3-yl)imidazo[1,2-a]pyridine-2-carboxamide] | ≥ 70%
12 | CN(CCOc1ccccc1)C(=O)c1cn2ccc(-c3noc(C(F)(F)F)n3)cc2n1 [Compound 14, N-methyl-N-(2-phenoxyethyl)-7-(5-(trifluoromethyl)-1,2,4-oxadiazol-3-yl)imidazo[1,2-a]pyridine-2-carboxamide] | ≥ 70%
13 | N#Cc1ccc(NC(=O)c2cn3ccc(-c4noc(C(F)(F)F)n4)cc3n2)cc1 [Compound 15, N-(4-cyanophenyl)-7-(5-(trifluoromethyl)-1,2,4-oxadiazol-3-yl)imidazo[1,2-a]pyridine-2-carboxamide] | ≥ 70%
14 | COc1cccc(NC(=O)c2cn3cc(-c4noc(C(F)(F)F)n4)ccc3n2)c1 [Compound 16, N-(3-methoxyphenyl)-6-(5-(trifluoromethyl)-1,2,4-oxadiazol-3-yl)imidazo[1,2-a]pyridine-2-carboxamide] | ≥ 70%
15 | O=C(Nc1ccc(F)cc1F)c1cn2cc(-c3noc(C(F)(F)F)n3)ccc2n1 [Compound 17, N-(2,4-difluorophenyl)-6-(5-(trifluoromethyl)-1,2,4-oxadiazol-3-yl)imidazo[1,2-a]pyridine-2-carboxamide] | ≥ 70%
16 | O=C(Nc1ccc(Cl)cc1)c1cn2cc(-c3noc(C(F)(F)F)n3)ccc2n1 [Compound 18, N-(4-chlorophenyl)-6-(5-(trifluoromethyl)-1,2,4-oxadiazol-3-yl)imidazo[1,2-a]pyridine-2-carboxamide] | ≥ 70%
17 | Cc1ccc(NC(=O)c2cn3cc(-c4noc(C(F)(F)F)n4)ccc3n2)cc1 [Compound 19, N-(p-tolyl)-6-(5-(trifluoromethyl)-1,2,4-oxadiazol-3-yl)imidazo[1,2-a]pyridine-2-carboxamide] | ≥ 70%

Row | SMILES | pest or weed control at 500 ppm
18 | O=C(Nc1ccccc1F)c1cn2cc(-c3noc(C(F)(F)F)n3)ccc2n1 [Compound 20, N-(2-fluorophenyl)-6-(5-(trifluoromethyl)-1,2,4-oxadiazol-3-yl)imidazo[1,2-a]pyridine-2-carboxamide] | ≥ 70%
19 | CNC(=O)c1cn2cc(-c3noc(C(F)(F)F)n3)ccc2n1 [Compound 21, N-methyl-6-(5-(trifluoromethyl)-1,2,4-oxadiazol-3-yl)imidazo[1,2-a]pyridine-2-carboxamide] | ≥ 70%
20 | COc1ccc(NC(=O)c2cn3cc(-c4noc(C(F)(F)F)n4)ccc3n2)cc1 [Compound 22, N-(4-methoxyphenyl)-6-(5-(trifluoromethyl)-1,2,4-oxadiazol-3-yl)imidazo[1,2-a]pyridine-2-carboxamide] | ≥ 70%
21 | O=C(NCc1ccccc1)c1cn2cc(-c3noc(C(F)(F)F)n3)ccc2n1 [Compound 23, N-benzyl-6-(5-(trifluoromethyl)-1,2,4-oxadiazol-3-yl)imidazo[1,2-a]pyridine-2-carboxamide] | ≥ 70%
22 | O=C(Nc1cccc(F)c1)c1cn2cc(-c3noc(C(F)(F)F)n3)ccc2n1 [Compound 24, N-(3-fluorophenyl)-6-(5-(trifluoromethyl)-1,2,4-oxadiazol-3-yl)imidazo[1,2-a]pyridine-2-carboxamide] | ≥ 70%
23 | CN(C)C(=O)c1cn2cc(-c3noc(C(F)(F)F)n3)ccc2n1 [Compound 25, N,N-dimethyl-6-(5-(trifluoromethyl)-1,2,4-oxadiazol-3-yl)imidazo[1,2-a]pyridine-2-carboxamide] | ≥ 70%
24 | O=C(Nc1ccc(Cl)cc1F)c1cn2cc(-c3noc(C(F)(F)F)n3)ccc2n1 [Compound 26, N-(4-chloro-2-fluorophenyl)-6-(5-(trifluoromethyl)-1,2,4-oxadiazol-3-yl)imidazo[1,2-a]pyridine-2-carboxamide] | ≥ 70%
25 | N#Cc1ccc(NC(=O)c2cn3cc(-c4noc(C(F)(F)F)n4)ccc3n2)cc1 [Compound 27, N-(4-cyanophenyl)-6-(5-(trifluoromethyl)-1,2,4-oxadiazol-3-yl)imidazo[1,2-a]pyridine-2-carboxamide] | ≥ 70%
26 | COc1ccccc1NC(=O)c1cn2cc(-c3noc(C(F)(F)F)n3)ccc2n1 [Compound 28, N-(2-methoxyphenyl)-6-(5-(trifluoromethyl)-1,2,4-oxadiazol-3-yl)imidazo[1,2-a]pyridine-2-carboxamide] | ≥ 70%
27 | O=C(Nc1cccnc1)c1cn2cc(-c3noc(C(F)(F)F)n3)ccc2n1 [Compound 29, N-(pyridin-3-yl)-6-(5-(trifluoromethyl)-1,2,4-oxadiazol-3-yl)imidazo[1,2-a]pyridine-2-carboxamide] | ≥ 70%
28 | O=C(Nc1c(F)cccc1F)c1cn2cc(-c3noc(C(F)(F)F)n3)ccc2n1 [Compound 30, N-(2,6-difluorophenyl)-6-(5-(trifluoromethyl)-1,2,4-oxadiazol-3-yl)imidazo[1,2-a]pyridine-2-carboxamide] | ≥ 70%
29 | O=C(NCc1cccc(F)c1)c1cn2cc(-c3noc(C(F)(F)F)n3)ccc2n1 [Compound 31, N-(3-fluorobenzyl)-6-(5-(trifluoromethyl)-1,2,4-oxadiazol-3-yl)imidazo[1,2-a]pyridine-2-carboxamide] | ≥ 70%
30 | O=C(Nc1ccncc1)c1cn2cc(-c3noc(C(F)(F)F)n3)ccc2n1 [Compound 32, N-(pyridin-4-yl)-6-(5-(trifluoromethyl)-1,2,4-oxadiazol-3-yl)imidazo[1,2-a]pyridine-2-carboxamide] | ≥ 70%
31 | COCCNC(=O)c1cn2ccc(-c3noc(C(F)(F)F)n3)cc2n1 [Compound 34, N-(2-methoxyethyl)-7-(5-(trifluoromethyl)-1,2,4-oxadiazol-3-yl)imidazo[1,2-a]pyridine-2-carboxamide] | ≥ 70%
32 | CC(C)CNC(=O)c1cn2ccc(-c3noc(C(F)(F)F)n3)cc2n1 [Compound 35, N-isobutyl-7-(5-(trifluoromethyl)-1,2,4-oxadiazol-3-yl)imidazo[1,2-a]pyridine-2-carboxamide] | ≥ 70%
33 | CC(C)(C)CNC(=O)c1cn2ccc(-c3noc(C(F)(F)F)n3)cc2n1 [Compound 36, N-neopentyl-7-(5-(trifluoromethyl)-1,2,4-oxadiazol-3-yl)imidazo[1,2-a]pyridine-2-carboxamide] | ≥ 70%
34 | O=C(NCc1ccc(Cl)cc1)c1cn2ccc(-c3noc(C(F)(F)F)n3)cc2n1 [Compound 38, N-(4-chlorobenzyl)-7-(5-(trifluoromethyl)-1,2,4-oxadiazol-3-yl)imidazo[1,2-a]pyridine-2-carboxamide] | ≥ 70%
